Source: PubChem BioAssay (NCI)
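Method: 48-hour compound exposure of cells in 96-well plates, five concentrations, linear interpolation of endpoints. TGI: total growth inhibition.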

Columns and labels:
Assay in all cases: inhibition of tumour cell growth, NCI panel, 48 h
SK-MEL-2 melanoma = test system: SK-MEL-2 melanoma
SNB-75 CNS = test system: SNB-75 CNS
SF-268 CNS = test system: SF-268 CNS
U251 CNS = test system: U251 CNS
CAKI-1 renal = test system: CAKI-1 renal
NCI-H226 lung = test system: NCI-H226 lung
EKVX NSCLC = test system: EKVX NSCLC
NCI-H522 lung = test system: NCI-H522 lung
COLO 205 colon = test system: COLO 205 colon
ACHN renal = test system: ACHN renal

Row | SMILES | TGI (SK-MEL-2 melanoma) [µM] | TGI (SNB-75 CNS) [µM] | TGI (SF-268 CNS) [µM] | TGI (U251 CNS) [µM] | TGI (CAKI-1 renal) [µM] | TGI (NCI-H226 lung) [µM] | TGI (EKVX NSCLC) [µM] | TGI (NCI-H522 lung) [µM] | TGI (COLO 205 colon) [µM] | TGI (ACHN renal) [µM]
1 | c1ccc(CCNCc2ccco2)nc1 | > 100 | > 100 | > 100 | > 100 | > 100 | > 100 | > 100 | > 100 | > 100 | > 100
2 | O=C1CCC2(CCO1)OCCO2 | > 100 | > 100 | > 100 | > 100 | > 100 | > 100 | > 100 | > 100 |  | > 100
3 | O=C1C=CC(=O)C(CNc2ccc(C(=O)OC34CC5CC(CC(C5)C3)C4)cc2)=C1 | 44.3 | 18.1 | 17.3 | 16.4 | 2.71 | 4.47 | 25.3 | 2.28 | 6.81 | 19.1
4 | COc1cccc(CC(C)NCC(O)c2ccc(O)c(O)c2)c1 (configuration not stated) | > 100 | > 100 | > 100 | > 100 | > 100 | 90.2 | > 100 | > 100 | > 100 | > 100
5 | CC(C)=CCC[C@@H](C)C1=C(Nc2ccccc2Cl)C(O)=C(C)C(=O)C1=O | 19.2 | 22.3 | 20.2 | 38 | 16 | 25.3 | 29.7 | 12.2 | 9.8 | 11.1
6 | Cc1ccc(C(=O)O)c(CC2Cc3c(C)cccc3C2=O)c1 (configuration not stated) | > 100 | > 100 | > 100 | > 100 | > 100 | > 100 | > 100 | > 100 | > 100 | > 100
7 | Cc1cccc2c1[nH]c1[nH]c(=O)[nH]c(=O)c12 | > 100 | 85.5 | > 100 |  | > 100 | > 100 | > 100 | > 100 | > 100 | > 100
8 | C(=C\c1cccc(/C=C/c2ccccn2)n1)/c1ccccn1 | > 100 | > 100 | 37.2 | > 100 | > 100 | > 100 | > 100 | 28.8 | > 100 | > 100
9 | N=C1N(S(=O)(=O)c2ccccc2)[C@@H](Cc2ccccc2)[C@H](c2ccccc2)C1(c1ccccc1)c1ccccc1 | > 100 | > 100 | > 100 | > 100 | > 100 |  | > 100 | > 100 | > 100 | > 100
10 | C=C(CCC(C)C1CCC2C3=C(C(=O)CC21C)C1(C)CCC(=O)[C@@H](C)C1CC3=O)C(C)C(=O)O (some centres not stated) | > 100 | > 100 | > 100 | > 100 | 72.3 | > 100 | > 100 | > 100 | > 100 | 88.6
11 | CN1CCN(c2c(Cl)cc(Cl)c3[nH]c4ccccc4c(=O)c23)CC1 | 28.1 | 22.5 | 20.2 | 19.7 | 20.6 | 23 | 32.6 | 19.2 | 25.3 | 17
12 | CCOC(=O)C1(C(=O)OCC)[C@H](c2ccccc2)C2=NO[C@@H]3CCC[C@H]1[C@H]23 | > 100 | > 100 | > 100 | > 100 | > 100 | > 100 | > 100 | > 100 | > 100 | > 100
13 | CN(C)CCNC(=O)c1ccc(NCCCN(C)CCCNc2ccc3c(=O)n(CCN(C)C)c(=O)n4c5ccccc5c(=O)c2c34)c2c(=O)c3ccccc3[nH]c12 | 0.228 | 0.0449 | 0.326 | 0.257 | 1.06 | 0.665 | 0.567 | 0.168 | 0.353 | 0.653
14 | CCOC(=O)C(NC(=O)N(C1=NCC(C)S1)C1CCCCC1)(OC)C(F)(F)F (configuration not stated) | > 100 | 75.1 | > 100 | 53.6 | > 100 | 47.5 | > 100 | 83.4 | 50.8 | 89.9
15 | O=[N+]([O-])c1ccc2nc(-c3ccccn3)c(-c3ccccn3)nc2c1 | > 100 | > 100 | > 100 | > 100 | > 100 | > 100 | > 100 | > 100 | > 100 | > 100
16 | CN(C)c1nc(N(C)C)nc(N(C)C23CC4CC(CC(C4)C2)C3)n1 | 55.5 | 86 | > 100 | > 100 | > 100 | > 100 | > 100 | 41 | 32.7 | > 100
17 | Clc1ccc(Cc2nc3ccccc3nc2-c2cccc(Br)c2)cc1 | 17.8 | 35.7 | 44.9 | 20.9 | 5.1 | 33.1 | 28.9 | 3.62 | 12 | 3.44
18 | Nc1cccc2c1C(=O)c1cccc(N)c1C2=O | > 100 | > 100 | > 100 | > 100 | > 100 | > 100 | > 100 | > 100 | > 100 | > 100
19 | Nc1nc(-c2ccccc2N=NN2CCCC2)nc2ccccc12 | 28.8 | 23.8 | 21.5 | 8.91 | 18.5 | 12.2 | 23.8 | 16.5 | 10.4 | 11.7
20 | CC(=O)O[C@@H]1C[C@@]23C[C@@]24CC[C@H](OC2OCC(O)C(O)C2O)C(C)(C)[C@@H]4CC=C3[C@]2(C)C[C@@H]3OC4(C[C@@H](C)[C@@H]3[C@@]12C)OC(O)[C@@]1(C)O[C@@H]41 (some centres not stated) | 40.7 | 58.7 | > 100 | > 100 | > 100 | > 100 | > 100 | 89.4 | 44 | > 100
21 | CCOP(=O)(OCC)C(Nc1cccc(F)c1)c1ccccc1 (configuration not stated) | > 100 | > 100 | > 100 | > 100 | > 100 | > 100 | > 100 | > 100 | > 100 | > 100
